Each structure is given as a SMILES string.

Experimental findings from article PMC4595804, “A strategy to discover decoy chemokine ligands with an anti-inflammatory activity” (Scientific Reports, 2015) are described below.

The target of this assay is T1, CCL22 (Homo sapiens, UniProt O00626).
T1 construct: codes for the mature CCL17 or CCL22 with an N-terminal thioredoxin-hexahistidin (TRX- (His)6) tag; thioredoxin (TRX) (N, cleaved yes); (His)6 (N, cleaved yes); made in house; host or cells: E. coli BL21 (DE3)
T1 sequence (O00626 25-93): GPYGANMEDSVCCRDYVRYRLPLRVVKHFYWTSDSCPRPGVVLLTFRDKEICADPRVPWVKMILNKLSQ
Description: Scratch wound assay, CCL22-mediated HaCat cell migration. It counts as cell-based. To be noted: HaCat cells, 72 h, read-out: inhibition of CCL22-mediated wound closure. The procedure:
soluble formazan dye which can be detected by absorbance at 420-480nm. HUT78 T cells (or HaCat cells) were seeded on 24-well plates (200,000 cells per well) and were incubated […]
concentration ≤1% on cells). The background control was reserved as one well containing the culture medium only. The plates were incubated for 72h at 37°C. Three days later, the medium containing the neutraligands was removed, and WST-1 reagent (1:10 final dilution) (Ozyme) was added to each well for a 2h incubation at 37°C as the manufacturer’s recommendation. The plates were shaken and absorbance was measured at 450nm (reference wavelength 690nm) against the background control, using a multiwell plate reader (EnVision, Perkin Elmer). Assays were performed as three independent replicates.
In vitro cell migration assay (scratch wound test) […]
the wound closure was determined as the difference between wound width at times 0 and 72h. […]
doses). After 24h, cytotoxicity was evaluated in the wells using the Alamar Blue method. […]
before AA treatment. The activity of COX2 was determined by measuring PGE2 (Cayman) in the supernatants by EIA. […]

The inhibition is the percentage by which the read-out fell short of the control. As to `O=C(OCC(O)CO)c1ccccc1O` (stereo not shown) [GPN136, 2,3-dihydroxypropyl 2-hydroxybenzoate], the inhibition at 10 µM amounted to 85.2%.
